Source: patent US11655235B2, “Pyrrolidine and piperidine compounds” (YUHAN CORPORATION, priority 2019, dated 2023)
pIC50: −log10 of the molar value. Where two headings read alike, the source gives them in different places.

What was measured:
Type in all cases: biochemical
[1] = biological target: T1, recombinant human PREP (Homo sapiens, UniProt P48147); assay: PREP inhibition, fluorogenic substrate Z-Gly-Pro-AMC; details: Inhibitory Activity (IC50, nM) PREP
T1 construct: purchased R&D System
T1 sequence (P48147 1-710): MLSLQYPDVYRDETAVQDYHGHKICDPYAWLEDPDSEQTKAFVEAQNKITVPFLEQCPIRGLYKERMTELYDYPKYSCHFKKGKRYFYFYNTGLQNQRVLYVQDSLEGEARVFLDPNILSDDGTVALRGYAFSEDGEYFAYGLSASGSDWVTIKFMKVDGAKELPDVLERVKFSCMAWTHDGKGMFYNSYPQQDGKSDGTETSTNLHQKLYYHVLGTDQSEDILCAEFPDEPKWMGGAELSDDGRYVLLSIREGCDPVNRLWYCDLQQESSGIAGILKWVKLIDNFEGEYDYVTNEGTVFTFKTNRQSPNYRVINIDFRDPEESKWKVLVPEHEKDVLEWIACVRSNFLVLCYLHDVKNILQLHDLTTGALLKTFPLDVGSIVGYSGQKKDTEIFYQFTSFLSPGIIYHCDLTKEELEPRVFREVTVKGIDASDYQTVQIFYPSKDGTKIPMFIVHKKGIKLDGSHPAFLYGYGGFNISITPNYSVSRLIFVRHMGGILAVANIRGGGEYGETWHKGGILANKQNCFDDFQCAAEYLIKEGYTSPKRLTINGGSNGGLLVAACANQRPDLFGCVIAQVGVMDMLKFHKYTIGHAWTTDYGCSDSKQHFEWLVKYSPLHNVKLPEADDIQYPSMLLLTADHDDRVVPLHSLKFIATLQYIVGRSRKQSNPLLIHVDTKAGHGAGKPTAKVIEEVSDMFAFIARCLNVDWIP
Outline: (§1)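 Enzyme per reaction: 50 ng DPP9, 20 ng DPP8, 10 ng each DPP7 and PREP. Compounds were serially diluted (8 points, up to 0.5% DMSO) and incubated at 25 °C.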

[2] = biological target: T2, recombinant human DPP7 (Homo sapiens, UniProt Q9UHL4); assay: DPP7 inhibition, fluorogenic substrate Lys-Pro-AMC
T2 construct: purchased R&D Systems
Outline: as §1

[3] = biological target: T3, recombinant human DPP9 (Homo sapiens, UniProt Q86TI2); assay: DPP9 inhibition, fluorogenic substrate H-Gly-Pro-AMC
T3 construct: purchased R&D Systems
T3 sequence (Q86TI2 whole entry): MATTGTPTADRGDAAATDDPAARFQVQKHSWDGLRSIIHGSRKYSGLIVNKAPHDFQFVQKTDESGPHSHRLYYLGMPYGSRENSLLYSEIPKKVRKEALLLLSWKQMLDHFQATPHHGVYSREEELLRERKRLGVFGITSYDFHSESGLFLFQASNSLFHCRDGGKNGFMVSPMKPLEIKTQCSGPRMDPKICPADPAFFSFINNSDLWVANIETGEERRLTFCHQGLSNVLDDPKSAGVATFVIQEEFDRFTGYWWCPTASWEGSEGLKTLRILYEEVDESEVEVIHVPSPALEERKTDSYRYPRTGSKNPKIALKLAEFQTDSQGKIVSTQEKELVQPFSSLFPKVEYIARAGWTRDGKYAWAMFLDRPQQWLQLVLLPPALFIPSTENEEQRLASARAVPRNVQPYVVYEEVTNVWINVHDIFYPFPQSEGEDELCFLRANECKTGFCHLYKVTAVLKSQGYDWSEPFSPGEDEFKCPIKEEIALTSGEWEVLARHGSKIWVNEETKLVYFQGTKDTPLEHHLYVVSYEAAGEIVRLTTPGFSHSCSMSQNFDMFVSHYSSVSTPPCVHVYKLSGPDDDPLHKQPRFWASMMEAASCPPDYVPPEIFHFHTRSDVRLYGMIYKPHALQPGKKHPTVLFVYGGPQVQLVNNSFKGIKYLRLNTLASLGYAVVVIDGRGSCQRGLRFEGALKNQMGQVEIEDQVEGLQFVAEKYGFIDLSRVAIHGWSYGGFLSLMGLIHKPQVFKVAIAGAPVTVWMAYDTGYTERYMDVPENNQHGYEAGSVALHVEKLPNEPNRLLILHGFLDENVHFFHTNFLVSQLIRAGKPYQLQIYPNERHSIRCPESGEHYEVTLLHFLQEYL
Outline: as §1

[4] = biological target: T4, Recombinant human FAP (Homo sapiens, UniProt Q12884); assay: FAP inhibition, fluorogenic substrate Z-Gly-Pro-AMC
T4 construct: purchased R&D systems
T4 sequence (Q12884 1-760): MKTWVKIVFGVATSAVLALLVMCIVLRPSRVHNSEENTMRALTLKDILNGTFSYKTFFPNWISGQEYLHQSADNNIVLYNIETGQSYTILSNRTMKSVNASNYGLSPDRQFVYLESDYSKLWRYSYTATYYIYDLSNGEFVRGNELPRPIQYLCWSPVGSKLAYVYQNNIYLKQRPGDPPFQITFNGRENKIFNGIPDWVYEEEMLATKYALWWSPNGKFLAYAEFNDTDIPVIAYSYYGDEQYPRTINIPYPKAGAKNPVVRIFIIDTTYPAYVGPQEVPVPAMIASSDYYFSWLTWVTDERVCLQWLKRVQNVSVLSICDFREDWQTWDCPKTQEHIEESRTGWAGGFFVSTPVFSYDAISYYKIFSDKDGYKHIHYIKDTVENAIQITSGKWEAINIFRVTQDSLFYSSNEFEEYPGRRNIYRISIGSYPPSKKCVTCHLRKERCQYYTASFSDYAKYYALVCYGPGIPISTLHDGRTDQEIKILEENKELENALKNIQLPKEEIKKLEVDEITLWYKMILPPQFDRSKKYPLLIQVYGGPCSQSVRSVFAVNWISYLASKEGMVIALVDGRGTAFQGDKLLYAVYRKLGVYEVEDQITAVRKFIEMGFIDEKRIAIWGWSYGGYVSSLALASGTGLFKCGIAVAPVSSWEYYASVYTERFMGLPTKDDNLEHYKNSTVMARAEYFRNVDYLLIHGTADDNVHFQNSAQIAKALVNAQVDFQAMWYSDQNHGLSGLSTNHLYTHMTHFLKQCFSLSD
Outline: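 Recombinant human FAP, 10 ng per reaction, in 50 mM Tris pH 7.5 with 1 M NaCl and 1 mg/ml BSA at 25° C; substrate Z-Gly-Pro-AMC, ≤0.1% DMSO. AMC fluorescence read at ex 380/em 460 nm; % signal-rate decrease vs no-inhibitor control, 8-point curves fitted to a four-parameter logistic for IC50.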

[5] = biological target: DPP4 (Homo sapiens, UniProt P27487); assay: DPP4 inhibition, fluorogenic substrate H-Gly-Pro-AMC; parameters: purchased R&D Systems
Sequence of DPP4 (P27487 whole entry): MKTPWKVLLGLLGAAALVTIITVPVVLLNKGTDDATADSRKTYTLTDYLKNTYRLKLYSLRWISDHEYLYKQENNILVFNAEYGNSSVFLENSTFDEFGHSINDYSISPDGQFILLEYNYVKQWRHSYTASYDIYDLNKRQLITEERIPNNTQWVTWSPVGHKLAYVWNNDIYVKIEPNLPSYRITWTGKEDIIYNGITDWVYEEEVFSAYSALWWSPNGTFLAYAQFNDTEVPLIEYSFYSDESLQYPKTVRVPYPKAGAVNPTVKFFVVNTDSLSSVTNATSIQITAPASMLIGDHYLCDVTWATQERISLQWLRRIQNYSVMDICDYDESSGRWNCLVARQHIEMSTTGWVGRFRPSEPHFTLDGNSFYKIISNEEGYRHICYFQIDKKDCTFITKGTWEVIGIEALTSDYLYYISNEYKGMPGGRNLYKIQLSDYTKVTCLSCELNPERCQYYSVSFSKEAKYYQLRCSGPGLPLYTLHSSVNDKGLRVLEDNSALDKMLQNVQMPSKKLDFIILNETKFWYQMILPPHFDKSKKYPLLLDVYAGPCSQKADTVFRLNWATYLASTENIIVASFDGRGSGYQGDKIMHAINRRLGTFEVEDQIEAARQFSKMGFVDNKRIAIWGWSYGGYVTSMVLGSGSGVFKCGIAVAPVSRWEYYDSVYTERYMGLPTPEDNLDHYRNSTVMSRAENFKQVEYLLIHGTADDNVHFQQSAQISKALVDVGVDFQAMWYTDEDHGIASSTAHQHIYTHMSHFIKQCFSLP

[6] = biological target: T5, recombinant human DPP8 (Homo sapiens, UniProt Q6V1X1); assay: DPP8 inhibition, fluorogenic substrate Z-Ala-Pro-AMC
T5 construct: purchased PBS Bioscience
T5 sequence (Q6V1X1 whole entry): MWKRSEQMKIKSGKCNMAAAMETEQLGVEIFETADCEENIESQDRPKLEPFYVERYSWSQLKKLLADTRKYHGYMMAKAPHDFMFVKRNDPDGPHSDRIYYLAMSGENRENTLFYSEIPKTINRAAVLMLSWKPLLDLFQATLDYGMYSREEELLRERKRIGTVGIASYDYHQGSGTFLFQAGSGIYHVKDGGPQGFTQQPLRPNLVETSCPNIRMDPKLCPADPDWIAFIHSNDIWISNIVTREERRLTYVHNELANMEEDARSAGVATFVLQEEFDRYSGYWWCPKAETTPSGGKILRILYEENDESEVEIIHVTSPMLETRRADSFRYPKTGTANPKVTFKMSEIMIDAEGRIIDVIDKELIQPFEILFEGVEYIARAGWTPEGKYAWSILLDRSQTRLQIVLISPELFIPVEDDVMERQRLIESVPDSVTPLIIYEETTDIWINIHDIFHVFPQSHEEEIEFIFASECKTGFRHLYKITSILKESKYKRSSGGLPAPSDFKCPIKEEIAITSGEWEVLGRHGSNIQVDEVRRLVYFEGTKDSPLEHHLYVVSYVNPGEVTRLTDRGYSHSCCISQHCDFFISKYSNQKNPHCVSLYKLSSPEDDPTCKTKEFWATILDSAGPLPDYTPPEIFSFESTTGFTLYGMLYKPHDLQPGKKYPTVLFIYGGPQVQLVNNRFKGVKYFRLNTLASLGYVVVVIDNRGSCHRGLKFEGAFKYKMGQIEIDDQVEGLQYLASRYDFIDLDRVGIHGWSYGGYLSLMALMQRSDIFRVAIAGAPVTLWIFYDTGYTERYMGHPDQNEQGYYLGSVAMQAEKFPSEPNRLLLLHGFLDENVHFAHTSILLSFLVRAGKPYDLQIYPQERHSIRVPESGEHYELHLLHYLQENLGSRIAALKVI
Outline: as §1

[7] = 25° C., Z-Gly-Pro-AMC substrate
[8] = 25° C., H-Gly-Pro-AMC substrate
[9] = 25° C., Z-Ala-Pro-AMC substrate
[10] = recombinant human FAP, substrate Z-Gly-Pro-AMC

| SMILES | IC50 [1, 7] [nM] | pIC50 [2] | pIC50 [3, 8] | pIC50 [4, 7] | pIC50 [5, 8] | pIC50 [6, 9] | IC50 ([1]; recombinant human PREP) [nM] | pIC50 ([2]; recombinant human DPP7) | pIC50 ([3]; recombinant human DPP9) | pIC50 [4, 10] | pIC50 ([5]; recombinant human DPP4) | pIC50 ([6]; recombinant human DPP8) | inhibition at 1 µM ([5]; read-out: hDPP4 inhibition % at 1 μM) [%] |
| --- | --- | --- | --- | --- | --- | --- | --- | --- | --- | --- | --- | --- | --- |
| N#C[C@@H]1CCCN1C(=O)CN1CC[C@@H](Nc2cncc3ccccc23)C1 [Example 24, (S)-1-(2-((R)-3-(isoquinolin-4-ylamino)pyrrolidin-1-yl)acetyl)pyrrolidine-2-carbonitrile] | 5460 | 6.28 | 4.17 | 8.67 | < 6.00 | 4.11 |  |  |  |  |  |  |  |
| N#C[C@@H]1CCCN1C(=O)CN1CC[C@H](NC(=O)c2coc3ccccc23)C1 [Example 37, N—((S)-1-(2-((S)-2-cyanopyrrolidin-1-yl)-2-oxoethyl)pyrrolidin-3-yl)benzofuran-3-carboxamide] | 8260 | 5.29 | < 4.00 | 7.93 | < 6.00 | 4.14 |  |  |  |  |  |  |  |
| N#C[C@@H]1C[C@H](F)CN1C(=O)CN1CCC(Oc2cncc3ccccc23)CC1 [Example 420, (2S,4S)-4-fluoro-1-[2-[4-(4-isoquinolyloxy)-1-piperidyl]acetyl]pyrrolidine-2-carbonitrile] |  |  |  |  |  |  | 1740 | 5.68 | 4.65 | 8.15 | < 5.00 | 5.07 |  |
| N#C[C@@H]1CCCN1C(=O)CN1CCC(Nc2cc(F)cc3ncccc23)CC1 [Example 123, (S)-1-(2-(4-((7-fluoroquinolin-5-yl)amino)piperidin-1-yl)acetyl)pyrrolidine-2-carbonitrile] | 20100 | 5.89 | 4.35 | 8.62 | < 5.00 | < 4.52 |  |  |  |  |  |  |  |
| N#C[C@@H]1CC(F)(F)CN1C(=O)CN1CC[C@H](Nc2cccc3ccsc23)C1 [Example 10, (S)-1-(2-((S)-3-(benzo[b]thiophen-7-ylamino)pyrrolidin-1-yl)acetyl)-4,4-difluoropyrrolidine-2-carbonitrile] | > 100000 | 7.12 | 5.00 | 8.49 | < 6.00 | 6.84 |  |  |  |  |  |  |  |
| N#C[C@@H]1CCCN1C(=O)CN1CC[C@H](Nc2cc(F)cc3ncccc23)C1 [Example 236, (2S)-1-[2-[(3S)-3-[(7-fluoro-5-quinolyl)amino]pyrrolidin-1-yl]acetyl]pyrrolidine-2-carbonitrile] |  |  |  |  |  |  | 8900 | 5.46 | 4.72 | 8.82 | < 5.00 | < 4.00 |  |
| N#C[C@@H]1CCCN1C(=O)CN1CC[C@H](Oc2cccc3cccnc23)C1 [Example 64, (S)-1-(2-((S)-3-(quinolin-8-yloxy)pyrrolidin-1-yl)acetyl)pyrrolidine-2-carbonitrile] | 84000 | 5.45 | 4.80 | 7.72 | < 6.00 | < 4.00 |  |  |  |  |  |  |  |
| N#C[C@@H]1CC(F)(F)CN1C(=O)CN1CC[C@H](Oc2ccc(Cl)c3cccnc23)C1 [Example 109, (S)-1-(2-((S)-3-((5-chloroquinolin-8-yl)oxy)pyrrolidin-1-yl)acetyl)-4,4-difluoropyrrolidine-2-carbonitrile] | 4140 | 7.42 | 5.35 | 8.74 | < 6.00 | 5.66 |  |  |  |  |  |  |  |
| COc1cccc2c(OC3CCN(CC(=O)N4C[C@@H](F)C[C@H]4C#N)CC3)cc(C(F)(F)F)nc12 [Example 415, (2S,4S)-4-fluoro-1-[2-[4-[[8-methoxy-2-(trifluoromethyl)-4-quinolyl]oxy]-1-piperidyl]acetyl]pyrrolidine-2-carbonitrile] |  |  |  |  |  |  | 1410 | 4.87 | 4.40 | 8.19 | < 5.00 | 4.78 |  |
| N#C[C@@H]1C[C@H](F)CN1C(=O)CN1CCC(Oc2ccnc3ccc(Cl)cc23)CC1 [Example 127, (2S,4S)-1-(2-(4-((6-chloroquinolin-4-yl)oxy)piperidin-1-yl)acetyl)-4-fluoropyrrolidine-2-carbonitrile] | 621 | 5.03 | 4.63 | 9.19 | < 5.00 | 5.06 |  |  |  |  |  |  |  |
| COc1cc2nccc(OC3CCN(CC(=O)N4C[C@@H](F)C[C@H]4C#N)CC3)c2cc1OC [Example 130, (2S,4S)-1-(2-(4-((6,7-dimethoxyquinolin-4-yl)oxy)piperidin-1-yl)acetyl)-4-fluoropyrrolidine-2-carbonitrile] | 2340 | 6.04 | 5.22 | 8.90 | < 5.00 | 4.98 |  |  |  |  |  |  |  |
| COc1ccc2c(OC3CCN(CC(=O)N4C[C@@H](F)C[C@H]4C#N)CC3)ccnc2c1 [Example 129, (2S,4S)-4-fluoro-1-(2-(4-((7-methoxyquinolin-4-yl)oxy)piperidin-1-yl)acetyl)pyrrolidine-2-carbonitrile] | 161 | 6.19 | 5.31 | 8.58 | < 5.00 | 5.01 |  |  |  |  |  |  |  |
| N#C[C@@H]1C[C@H](F)CN1C(=O)CN1CCC(Nc2cccc3ccncc23)CC1 [Example 342, (2S,4S)-4-fluoro-1-[2-[4-(8-isoquinolylamino)-1-piperidyl]acetyl]pyrrolidine-2-carbonitrile] |  |  |  |  |  |  | 6650 | 6.50 | 5.27 | 7.85 | 5.49 | 4.40 |  |
| N#C[C@@H]1CC(F)(F)CN1C(=O)CN1CC[C@H](Nc2cccc3ccoc23)C1 [Example 11, (S)-1-(2-((S)-3-(benzofuran-7-ylamino)pyrrolidin-1-yl)acetyl)-4,4-difluoropyrrolidine-2-carbonitrile] | > 100000 | 7.02 | 4.77 | 8.89 | < 6.00 | 6.64 |  |  |  |  |  |  |  |
| Cc1cnc2cccc(NC3CCN(CC(=O)N4C[C@@H](F)C[C@H]4C#N)CC3)c2c1 [Example 131, (2S,4S)-4-fluoro-1-(2-(4-((3-methylquinolin-5-yl)amino)piperidin-1-yl)acetyl)pyrrolidine-2-carbonitrile] | 7920 | 6.21 | 5.56 | 8.56 | 5.46 | 5.08 |  |  |  |  |  |  |  |
| N#C[C@@H]1CCCN1C(=O)CN1CC[C@H](NC(=O)c2coc3cccc(O)c23)C1 [Example 48, N—((S)-1-(2-((S)-2-cyanopyrrolidin-1-yl)-2-oxoethyl)pyrrolidin-3-yl)-4-hydroxybenzofuran-3-carboxamide] | 6750 | 6.12 | < 4.00 | 8.65 |  | 4.92 |  |  |  |  |  |  | 3.6 |
